Data: patent US20160067269A1, “Miltefosin Or Perifosin For Use In The Treatment of IBD” (ACADEMISCH MEDISCH CENTRUM, priority 2013, published 2016)

Key:
[1] = 50 mg/kg per treatment; reported in literature; cited from earlier work
[2] = system: SCID mice (C.B-17/lcrHsd-Prkcd); experiment: experimental colitis transfer model (CD45RBHigh cells injected into SCID mice); assay type: in vivo, mouse; details: 50 mg/kg oral gavage twice a week
Description: To study the application of miltefosine as an anti-inflammatory drug, miltefosine was tested in the experimental colitis transfer model. In this model SCID mice, lacking T and B lymphocytes, are injected with only effector T lymphocytes (CD4^+CD45RB^High) omitting regulatory T lymphocytes (CD4^+CD45RB^Low). The absence of the letter causes, over a period of two months, the development of chronic inflammation of the colon.
Mouse CD4 positive lymphocytes were isolated from the spleen of normal mice (Balb/c OlaHsd). The spleen was removed, forced through a cell strainer to obtain a single cell suspension. Erythrocytes were lysed by adding water, quickly followed by PBS. The remaining cells were enriched in CD4 positive cells by negative depletion using magnetic beads specific for B cell (anti-B220), macrophages (anti-Mac-1) and cytotoxic T lymphocytes (anti-CD8). The remaining cell were washed and labeled for CD4 (CD4-PerCP-Cy5) and CD45RB (CD45RB-FITC). Using a FACS sorter the cell were separated in CD4 cells expressing low levels of CD45RB (CD45RB^Low) and high levels of CD45RB (CD45RB^High).
To induce colitis, SCID mice (C.B-17/lcrHsd-Prkcd) were injected with 5·10^5 CD45RB^High cells.
The mice were divided in three groups, each group containing 10 mice. […] Group two and three both received only CD45RB^High cells and developed colitis. Only group three received miltefosine (50 mg/kg) via oral gavage. Treatment started two weeks after the start of the experiment and was given twice a week until the end of the experiment. The mice were weighted three times a week during the entire duration of the experiment.
Part of the colon of each mouse was embedded in paraffin, cut and stained with hematoxylin and eosin (HE). The pathology score takes in account epithelial cell hyperplasia, leukocyte infiltrations, loss of goblet cells, ulceration and cryptabscesses.

human patients = details: high dosages; cited from earlier work

weight loss in two days time ([2]; after day 42): ten | average weight at the end of the experiment ([2]; between the groups): does not differ significantly
Structure (SMILES): CCCCCCCCCCCCCCCCOP(=O)([O-])OCC[N+](C)(C)C [miltefosine, hexadecyl phosphocholine]
effect on bodyweight [1]: can affect bodyweight negatively | average weight of the group versus negative control group ([2]; till day 42): corresponded with the negative control group | side effects in human patients (human patients): nausea and vomiting
